Data reported in patent US9145391B2, “Bipyridylaminopyridines as Syk inhibitors” (Merck Sharp & Dohme Corp., priority 2011, dated 2015).

target: recombinant human GST-Syk (Homo sapiens (Human), UniProt P43405); assay: Homogeneous Time-Resolved Fluorescence (HTRF) assay for the recombinant human Syk enzyme; assay type: biochemical; details: recombinant human GST-Syk 5 pM, ATP 25 μM, read-out: rhSyk IC50
Method: Syk inhibition may be determined using the following assay protocol: Homogeneous Time-Resolved Fluorescence (HTRF) Assay for the Recombinant Human Syk Enzyme: A recombinant GST-hSyk fusion protein was used to measure potency of compounds to inhibit human Syk activity. […] To initiate the reaction the biotinylated substrate peptide (250 nM final concentration) that contains the phosphorylation site for Syk was added with magnesium (5 mM final concentration) and ATP (25 μM final concentration). […] Final volume of the quenching solution was 10 μL.

| SMILES | IC50 [nM] |
| --- | --- |
| Cc1cc(Nc2cc(C(F)F)ccn2)nc(-c2ccc(C(C)(O)[C@H]3CC[C@H](CO)CC3)nc2)c1 (single isomer, unassigned) [Example 23, (1R or 1S)-1-(6-{[4-(difluoromethyl)pyridin-2-yl]amino}-4-methyl-2,3′-bipyridin-6′-yl)-1-[trans-4-(hydroxymethyl)cyclohexyl]ethanol] | 1 |
| Cc1cc(Nc2cc(C(F)(F)F)ccn2)nc(-c2ccc(F)nc2)c1 [Example 1-1] | 38 |
| Cc1ccnc(Nc2cc(C)cc(-c3ccc(F)nc3)n2)c1 [Example 1-2] | 111 |
| Cc1ccnc(Nc2cc(C)cc(-c3ccnc(F)c3)n2)c1 [Example 1-3] | 135 |
| Cc1cc(Nc2cc(C(F)(F)F)ccn2)nc(-c2ccnc(F)c2)c1 [Example 1-4] | 87 |
| Cc1cc(Nc2cc(C(F)(F)F)ccn2)nc(-c2ccc(C3(O)CCN(C(=O)OC(C)(C)C)CC3)nc2)c1 [Example 1-5] | 406 |
| CCOC(=O)C1CCC(O)(c2ccc(-c3cc(C)cc(Nc4cc(C(F)(F)F)ccn4)n3)cn2)CC1 (stereo not drawn) [Example 1-10] | 45 |
| CCOC(=O)C1CCC(O)(c2ccc(-c3cc(C)cc(Nc4cc(C(F)(F)F)ccn4)n3)cn2)CC1 (stereo not drawn) [Example 1-11] | 47 |
| COC(=O)C1CCC(C(=O)c2ccc(-c3cc(C)cc(Nc4cc(C(F)(F)F)ccn4)n3)cn2)CC1 (stereo not drawn) [Example 1-12] | 643 |
| Cc1cc(Nc2cc(C(F)F)ccn2)nc(-c2ccc(C3(O)CCC3)nc2)c1 [Example 1-13] | 5 |
| Cc1cc(Nc2cc(C(F)F)ccn2)nc(-c2ccc(C(C)(C)O)nc2)c1 [Example 1-14] | 8 |
| CCCCOC(=O)C1CCC(C(C)(O)c2ccc(-c3cc(C)cc(Nc4cc(C(F)(F)F)ccn4)n3)cn2)CC1 (stereo not drawn) [Example 1-15] | 19 |
| CCC(O)(c1ccc(-c2cc(C)cc(Nc3cc(C(F)(F)F)ccn3)n2)cn1)C1CCC(C(=O)OC)CC1 (stereo not drawn) [Example 1-16] | 12 |
| COC(=O)C1CCC(C(O)(c2ccc(-c3cc(C)cc(Nc4cc(C(F)(F)F)ccn4)n3)cn2)C2CC2)CC1 (stereo not drawn) [Example 1-17] | 16 |
| Cc1cc(Nc2cc(C(F)(F)F)ccn2)nc(-c2ccc(C3(O)CCC(C(=O)O)CC3)nc2)c1 (stereo not drawn) [Example 1-18] | 1 |
| Cc1cc(Nc2cc(C(F)(F)F)ccn2)nc(-c2ccc(C3(O)CCC(C(=O)O)CC3)nc2)c1 (stereo not drawn) [Example 1-19] | 3 |

| SMILES | IC50 [nM] |
| --- | --- |
| Cc1cc(Nc2cc(C(F)(F)F)ccn2)nc(-c2ccc(C3(O)CCCc4cc(C(=O)O)ccc43)nc2)c1 (stereo not drawn) [Example 1-21] | 2 |
| Cc1cc(Nc2cc(C(F)(F)F)ccn2)nc(-c2ccc(C3(O)CCCc4cc(C(=O)O)ccc43)nc2)c1 (stereo not drawn) [Example 1-22] | 1 |
| Cc1cc(Nc2cc(C(F)(F)F)ccn2)nc(-c2ccc(C3(O)CCC(C(=O)O)C(C)(C)C3)nc2)c1 (stereo not drawn) [Example 1-23] | 29 |
| Cc1cc(Nc2cc(C(F)(F)F)ccn2)nc(-c2ccc(C3(O)CCC(C(=O)O)C(C)(C)C3)nc2)c1 (stereo not drawn) [Example 1-24] | 8 |
| Cc1cc(Nc2cc(C(F)(F)F)ccn2)nc(-c2ccc(C3(O)CCC(C(=O)O)C(C)(C)C3)nc2)c1 (stereo not drawn) [Example 1-25] | 1 |
| Cc1cc(Nc2cc(C(F)(F)F)ccn2)nc(-c2ccc(C3(O)CCC(C(=O)O)C(C)(C)C3)nc2)c1 (stereo not drawn) [Example 1-26] | 1 |
| CCC(O)(c1ccc(-c2cc(C)cc(Nc3cc(C(F)(F)F)ccn3)n2)cn1)C1CCC(C(=O)O)CC1 (stereo not drawn) [Example 1-30] | < 0.5 |
| Cc1cc(Nc2cc(C(F)(F)F)ccn2)nc(-c2ccc(C(O)(C3CCC(C(=O)O)CC3)C3CC3)nc2)c1 (stereo not drawn) [Example 1-31] | < 0.5 |
| Cc1cc(Nc2cc(C3CC3)ccn2)nc(-c2ccc(C(C)(O)C3CCC(C(=O)O)CC3)nc2)c1 (stereo not drawn) [Example 1-32] | 1 |
| CC(O)(c1ccc(-c2cc(C3CC3)cc(Nc3cc(C(F)F)ccn3)n2)cn1)C1CCC(C(=O)O)CC1 (stereo not drawn) [Example 1-33] | < 0.5 |
| CC(C)(O)c1cc(Nc2cc(C(F)F)ccn2)nc(-c2ccc(C(C)(O)C3CCC(C(=O)O)CC3)nc2)c1 (stereo not drawn) [Example 1-34] | 1 |
| Cc1cc(Nc2cc(C(F)F)ccn2)nc(-c2ccc(C(C)(O)C3CCC(C(=O)O)C(C)C3)nc2)c1 (stereo not drawn) [Example 1-35] | < 0.5 |
| Nc1cc(Nc2cc(C(F)(F)F)ccn2)nc(-c2ccc(NC3CCNC3=O)nc2)c1 (stereo not drawn) [Example 2, 3-[(4-Amino-6-{[4-(trifluoromethyl)pyridin-2-yl]amino}-2,3′-bipyridin-6′-yl)amino]pyrrolidin-2-one] | 4 |
| Cc1cc(Nc2cc(C(F)(F)F)ccn2)nc(-c2ccc(OC[C@H]3CC[C@H](C(=O)O)CC3)nc2)c1 [Example 3, trans-4-{[(4-Methyl-6-{[4-(trifluoromethyl)pyridin-2-yl]amino}-2,3′-bipyridin-6′-yl)oxy]methyl}cyclohexanecarboxylic acid] | 3 |
| Cc1cc(Nc2cc(C(F)(F)F)ccn2)nc(-c2ccc(NC3CCN(C(=O)c4cnc5ccc(F)cc5c4)CC3)nc2)c1 [Example 4, (6-Fluoroquinolin-3-yl)(4-(4-methyl-6-(4-(trifluoromethyl)pyridin-2-ylamino)-2,3′-bipyridin-6′-ylamino)piperidin-1-yl)methanone] | 8 |

Results, then the compound that gave them:

| IC50 [nM] | SMILES |
| --- | --- |
| 23 | Cc1cc(Nc2cc(C(F)F)ccn2)nc(-c2ccc(C(C)(O)[C@H]3CC[C@H](C(=O)OC(C)OC(=O)C(C)C)CC3)nc2)c1 (single isomer, unassigned) [Example 21-4, 1-[(2-methylpropanoyl)oxy]ethyl trans-4-[(1R or 1S)-1-(6-{[4-(difluoromethyl)pyridin-2-yl]amino}-4-methyl-2,3′-bipyridin-6′-yl)-1-hydroxyethyl] cyclohexanecarboxylate] |
| 33 | Cc1cc(Nc2cc(C(F)F)ccn2)nc(-c2ccc(C(C)(O)[C@H]3CC[C@H](C(=O)OC(C)OC(=O)C(C)C)CC3)nc2)c1 (single isomer, unassigned) [Example 21-5, 1-[(2-methylpropanoyl)oxy]ethyl trans-4-[(1R or 1S)-1-(6-{[4-(difluoromethyl)pyridin-2-yl]amino}-4-methyl-2,3′-bipyridin-6′-yl)-1-hydroxyethyl] cyclohexanecarboxylate] |
| 15 | CC(=O)OCCOC(=O)[C@H]1CC[C@H](C(C)(O)c2ccc(-c3cc(C)cc(Nc4cc(C(F)F)ccn4)n3)cn2)CC1 (single isomer, unassigned) [Example 21-6, 2-(acetyloxy)ethyl trans-4-[(1R or 1S)-1-(6-{[4-(difluoromethyl)pyridin-2-yl]amino}-4-methyl-2,3′-bipyridin-6′-yl)-1-hydroxyethyl] cyclohexanecarboxylate] |
| 271 | Cc1cc(Nc2cc(C(F)(F)F)ccn2)nc(-c2ccc(N3CCCC(NC(=O)OC(C)(C)C)C3)nc2)c1 (stereo not drawn) [Example 2-2] |
| 248 | Cc1cc(Nc2cc(C(F)(F)F)ccn2)nc(-c2ccc(N3CCC(NC(=O)OC(C)(C)C)C3)nc2)c1 (stereo not drawn) [Example 2-3] |
| 91 | Cc1cc(Nc2cc(C(F)(F)F)ccn2)nc(-c2ccc(NC3CCN(C(=O)OC(C)(C)C)CC3)nc2)c1 [Example 2-4] |
| 4 | Cc1cc(Nc2cc(C(F)(F)F)ccn2)nc(-c2ccc(NC3CCNC3=O)nc2)c1 (stereo not drawn) [Example 2-9] |
| 3 | Cc1cc(Nc2cc(C(F)(F)F)ccn2)nc(-c2ccc(N3CCCC3C(=O)O)nc2)c1 (stereo not drawn) [Example 2-10] |
| 3 | Cc1cc(Nc2cc(C(F)(F)F)ccn2)nc(-c2ccc(N3CCC3C(=O)O)nc2)c1 (stereo not drawn) [Example 2-11] |
| 6 | Cc1cc(Nc2cc(C(F)(F)F)ccn2)nc(-c2ccc(NC3CCNC3=O)nc2)c1 (stereo not drawn) [Example 2-16] |
| 39 | Cc1cc(Nc2cc(C(F)(F)F)ccn2)nc(-c2ccc(N3CCCC3C(=O)O)nc2)c1 (stereo not drawn) [Example 2-17] |
| 33 | Cc1cc(Nc2cc(C(F)(F)F)ccn2)nc(-c2ccc(N3CCC3C(=O)O)nc2)c1 (stereo not drawn) [Example 2-18] |
| 19 | Cc1cc(Nc2cc(C(F)(F)F)ccn2)nc(-c2ccc(NC(C)(C)C(=O)O)nc2)c1 [Example 2-19] |
| 2 | Cc1cc(Nc2cc(C(F)(F)F)ccn2)nc(-c2ccc(N3CCN(C(=O)N4CCCC(C(=O)O)C4)CC3)nc2)c1 (stereo not drawn) [Example 2-20] |
| 2 | Cc1cc(Nc2cc(C(F)(F)F)ccn2)nc(-c2ccc(N3CC(C4CCCC(C(=O)O)C4)C3)nc2)c1 (stereo not drawn) [Example 2-21] |
| 3 | Cc1cc(Nc2cc(C(F)(F)F)ccn2)nc(-c2ccc(N3CC(C4CCC(C(=O)O)CC4)C3)nc2)c1 (stereo not drawn) [Example 2-22] |
| 3 | Cc1cc(Nc2cc(C(F)(F)F)ccn2)nc(-c2ccc(NCC3CCC(C(=O)O)CC3)nc2)c1 (stereo not drawn) [Example 2-23] |
| 1 | Cc1cc(Nc2cc(C(F)(F)F)ccn2)nc(-c2ccc(NC3CCC(C(=O)O)CC3)nc2)c1 (stereo not drawn) [Example 2-24] |
| 7 | Cc1cc(Nc2cc(C(F)(F)F)ccn2)nc(-c2ccc(NC3CCC(C(=O)O)CC3)nc2)c1 (stereo not drawn) [Example 2-25] |
| 3 | Cc1cc(Nc2cc(C(F)(F)F)ccn2)nc(-c2ccc(N3CCC(C(=O)N4CCC(C(=O)O)CC4)CC3)nc2)c1 [Example 2-26] |
| 2 | Cc1cc(Nc2cc(C(F)(F)F)ccn2)nc(-c2ccc(N3CCCC(C(=O)N4CCCC(C(=O)O)C4)C3)nc2)c1 (stereo not drawn) [Example 2-27] |
| 3 | Cc1cc(Nc2cc(C(F)(F)F)ccn2)nc(-c2ccc(N3CCCC(C(=O)N4CCCC(C(=O)O)C4)C3)nc2)c1 (stereo not drawn) [Example 2-28] |
| 6 | Cc1cc(Nc2cc(C(F)(F)F)ccn2)nc(-c2ccc(N3CCC4CCC(C(=O)O)CC4C3)nc2)c1 (stereo not drawn) [Example 2-29] |
| 14 | Cc1cc(Nc2cc(C(F)(F)F)ccn2)nc(-c2ccc(N3CCOCC3)nc2)c1 [Example 2-30] |
| 3 | Cc1cc(Nc2cc(C(F)(F)F)ccn2)nc(-c2ccc(N3CCC(C4CCCCC4C(=O)O)CC3)nc2)c1 (stereo not drawn) [Example 3-1] |
| 9 | Cc1cc(Nc2cc(C(F)(F)F)ccn2)nc(-c2ccc(NC3CCN(C(=O)Cc4ccc(-c5cn[nH]c5)cc4)CC3)nc2)c1 [Example 4-1] |
